Experimental data from patent US20260232752A1, “COMBINATION THERAPY METHODS, COMPOSITIONS AND KITS” (Accure Therapeutics, S.L., priority 2019, published 2026).
Counter-ions that a name gives are not always drawn.

Tests used:
[1] = system: human neuroblastoma cell line SH-SY5Y; experiment: Neuroprotection against H2O2 oxidative stress, MTT assay; type: cell-based; conditions: 1 hour preincubation at 0.03-40 μM, then H2O2 15 μM 30 minutes
Experimental: The objective of the study was to test the possible synergistic effect of the BN201-monomethylfumarate salt in a neuroprotective assay. Thus, BN201-monomethylfumarate salt obtained as indicated in example 5, was tested for its ability to protect the human neuroblastoma cell line SH-SY5Y against death induced by oxidative stress (i.e., hydrogen peroxide (H202)) using an MTT (3-(4,5-dimethylthiazol-2-yl)-2,5-diphenyltetrazolium bromide) cell proliferation assay.
SH-SY5Y cells were cultivated in 50% Eagle's minimum essential medium (EMEM), 50% Ham's F12 Nutrient Mixture, 10% fetal bovine serum (FBS), 2 mM L-Glu, and 1% penicillin/streptomycin. All of the cell cultures were maintained in a humidified incubator at 5% CO2 and at 37° C. SH-SY5Y cells were preincubated for 1 hour with BN201 alone, monomethyl fumarate alone, or BN201-monomethylfumarate salt at various concentrations (n=5; concentrations: 0.03 μM, 0.1 μM, 0.3 μM, 0.5 μM, 1 μM, 3 μM, 5 μM, 10 μM, 20 μM, 40 μM) and then H2O2 (15 μM) was added to induce stress. Preincubation with sodium pyruvate (10 mM) was used as a positive control. After 30 minutes of H2O2 incubation, the medium was changed and thiazolyl blue tetrazolium bromide (MTT; Sigma Aldrich; stock concentration 10 mg/ml) was added to each well at the final concentration of 0.5 mg/ml. After 2 hours of MTT incubation the cell medium was removed, and cells were resuspended in pure dimethyl sulfoxide (DMSO). Cell viability was determined by reading the absorbance at 570 nm. Each experiment was performed in quintuplicate.

[2] = system: non-obese diabetic mouse model of relapsing-remitting EAE; conditions: cited from earlier work
[3] = system: rat model of experimental autoimmune encephalomyelitis (EAE); conditions: cited from earlier work
[4] = system: EAE in C57BL6 mice immunized with MOG35-55; experiment: Example 3: BN201 and DMF combination, progression of chronic EAE; type: in vivo, mouse; conditions: DMF 10 mg/kg oral alone (suboptimal), once a day six days per week from day 15
Experimental: Effect in the animal model of MS (i.e., EAE in C57BL6 mice immunized with MOG35-55), similar to Example 2.
Starting on day 15, mice were administered: • dimethyl fumarate (DMF) (group A, 10 mice), • BN201 (group B, 10 mice) • a combination thereof (group C, 10 mice) once a day for six days per week at suboptimal dosages (10 mg/kg for DMF, 25 mg/kg for BN201).
DMF was administered orally with a rigid cannula in a saline vehicle at a volume of 10 mL/kg, while BN201 was administered via i.p. injection in a saline vehicle at a volume of 5 mL/kg. Control mice received vehicle only via both oral and i.p. injection (group D, 10 mice) or nothing at all (group E, 2 mice).
The objective of the study was to evaluate the efficacy and safety of combination therapy with suboptimal doses of BN201 (25 mg/kg) and dimethyl-fumarate (DMF) (10 mg/kg) in the progression of chronic EAE in mice.
During a one week acclimation period starting on day −7, mice were distributed based on body weight stratification into different experimental groups. On day 0, mice were immunized subcutaneously in both hind pads with 150 μg of MOG peptide 35-55 (Spikem, Firenze) emulsified with 50 μg of Mycobacterium tuberculosis (H37Ra strain; Difco, Detroit, MI) in incomplete Freund's adjuvant (IFA). […]

[5] = system: experimental autoimmune encephalomyelitis (EAE) mouse model; experiment: Study EAE-C05: clinical score in EAE mouse model with active comparators; type: in vivo; conditions: 2 mg/kg daily, after 5 days of treatment
Experimental: A second experiment (Study EAE-C05) was then performed using the same mouse model.
Study EAE-C05: In addition to two dose levels of BN201 and a placebo-treated group (pathological control group), the study design introduced two active comparators, dimethyl fumarate (DMF) and fingolimod (FTY720), and a sham group (group in which animals were manipulated as the pathological group but without MOG injection). All groups were administered daily. • sham control non-diseased placebo-treated animals (healthy control group); • EAE-affected placebo-treated animals (pathological control group); • EAE-affected animals treated orally with 15 mg/kg of DMF; • EAE-affected animals treated with 2 mg/kg of FTY720; • EAE-affected animals treated with BN201 at 50 or 100 mg/kg.
(§1) Clinical scores were assigned to assess disease severity using the following scale: 0=normal; 0.5=Partial tail paralysis; 1=Complete tail paralysis; 1.5=Tail paralysis and loss of righting reflex; 2=Partial hind limb paralysis/paralysis of one limb; 2.5=One limb paralysis and partial loss of activity of one other limb; 3=Bilateral hind limb paralysis; 4=Moribund; 5=exitus.
Therapeutic treatment was initiated on day 12 or 13, once each mouse started showing complete tail paralysis (Score 1).

[6] = system: experimental autoimmune encephalomyelitis (EAE) mouse model; experiment: Study EAE-C06: dose response of BN201, clinical score in EAE mouse model; type: in vivo; conditions: 2 mg/kg daily, almost all days of observation/treatment (Day 2 to day 30)
Experimental: A third experiment (Study EAE-C06) to test dose response of BN201 was then performed using the same mouse model.
Study EAE-C06: five different concentrations of BN201: 12.5 mg/kg, 25 mg/kg, 50 mg/kg, 100 mg/kg, and 150 mg/kg. Also sham, pathological control and FTY720 (2 mg/kg) comparator groups were included in the experiment. All groups were administered daily.
as §1
Therapeutic treatment was initiated on day 12 once each mouse started showing complete tail paralysis (Score 1).
Data are depicted in FIG. 1 (C), wherein the clinical score for each of the tested groups is plotted per day after disease onset.

[7] = system: EAE in C57BL6 mice immunized with MOG35-55; experiment: Example 4: BN201 and STAT3 inhibitor combination, chronic phase of EAE; type: in vivo, mouse; conditions: S31-201 5 mg/kg i.p. alone (optimal), from day 34 to day 54
Experimental: Effect during the chronic phase of the disease in the animal model of Multiple Sclerosis (i.e., EAE in C57BL6 mice immunized with MOG35-55)
Efficacy and safety of combination therapy with optimal doses of BN201 (50 mg/kg) and S31-201 (5 mg/kg) in the progression of chronic EAE in mice.
Starting the chronic phase of the disease (by day 34) mice were administered: • the STAT3 inhibitor S31-201 (group A, 7 mice), • BN201 (group B, 6 mice), or • a combination thereof (group C, 6 mice) once a day for six days per week at optimal dosages (5 mg/kg for S31-201, 50 mg/kg for BN201).
S31-201 and BN201 were administered via i.p. injection in a saline vehicle at a volume of 5 mL/kg. Control mice received vehicle only via both oral and i.p. injection (group D, 6 mice) or nothing at all (group E, 2 mice). Mice were treated from day 34 (chronic EAE stage) until the end of the experiment on day 54.
The combination of BN201 and the STAT3-inhibitor S31-201 was evaluated for its effect during the chronic phase of the disease in the animal model of Multiple Sclerosis (i.e., EAE in C57BL6 mice immunized with MOG35-55). The objective of the study was to evaluate the efficacy and safety of combination therapy with optimal doses of BN201 (50 mg/kg) and 531-201 (5 mg/kg) in the progression of chronic EAE in mice. […]

## CC(C)CN(CC(=O)N(CCCN1CCCC1=O)CC(N)=O)C(=O)CNCCc1ccccc1F [BN201-monomethylfumarate salt]
[1]
  cell viability as a percentage compared to the control (protection from death induced by oxidative stress): increased
[1]; listed as BN201-monomethylfumarate
  cell viability as a percentage compared to the control (protection from death induced by oxidative stress): significantly higher level of neuroprotection than either compound alone

## CCCc1ccc(COc2ccc3c(c2)CCC(CN2CC(C(=O)O)C2)=C3C)c(OC)c1 [Ceralifimod, 1-[[6-[(2-methoxy-4-propylphenyl)methoxy]-1-methyl-3,4-dihydronaphthalen-2-yl]methyl]azetidine-3-carboxylic acid]
[2]
  disease relapse: prevents disease relapse
[3]
  disease onset: delays disease onset
  lymphocyte infiltration of the spinal cord: inhibits lymphocyte infiltration of the spinal cord

## COC(=O)/C=C/C(=O)OC [DMF, Dimethyl fumarate, reference compound]
[4]
  course of EAE (clinical score) versus placebo: suffered EAE similar to those mice treated with placebo

## CCCCCCCCc1ccc(CCC(N)(CO)CO)cc1 [FTY720, Fingolimod, reference compound]
[5]
  clinical score compared to pathological control group: significantly lower
[6]
  clinical score: significant amelioration of the clinical score

## Cc1ccc(S(=O)(=O)OCC(=O)Nc2ccc(C(=O)O)c(O)c2)cc1 [S31-201, 2-Hydroxy-4-[[[[(4-methylphenyl)sulfonyl]oxy]acetyl]amino]-benzoic acid, reference compound]
[7]
  course of EAE in chronic phase (clinical score): not efficacious

## COC(=O)/C=C/C(=O)O [fumarate, fumaric acid monomethyl ester, reference compound]
[1]
  cell viability as a percentage compared to the control (protection from death induced by oxidative stress): partially rescued neurons from death induced by oxidative stress
